Patent US20240358693A1, “METHODS OF TREATING PAIN” (Aisa Pharma, Inc., priority 2023, published 2024)

Tested on: participants with SSc-RP
Experiment: Scleroderma Health Assessment Questionnaire (SHAQ): disability indices and visual analog scales
Assay type: in vivo, human
Text: The standard, validated, patient reported outcome measures tool for SSc patients, the Scleroderma Health Assessment Questionnaire (SHAQ), will be used to assess the participant qualify of life. Details are attached in the Appendix. The participant quality of life will be scored, and a disability index calculated for each questionnaire completed by the patient at Screening and each in-clinic visit. The absolute change in participant quality of life from baseline to the end of each dosing period will be calculated similar to frequency data as before.
The SHAQ includes a Raynaud's VAS, which will be reported at screening and each in-clinic visit. The absolute change in Raynaud-VAS, assessed by the participants response to the SHAQ question ‘In the past 7 days, how much have your Raynaud's interfered with your daily activities?’ at baseline and the end of each dosing period will be calculated similar to frequency data as before.
The SHAQ is used to calculate a Disability Index to assess the participant qualify of life. The eight categories assessed by the Disability Index are 1) dressing and grooming, 2) arising, 3) eating, 4) walking, 5) hygiene, 6) reach, 7) grip, and 8) common daily activities. For each of these categories, patients report the amount of difficulty they have in performing two or three specific activities.
There are four possible responses for the Disability Index questions: • Without any difficulty=0 • With some difficulty=1 • With much difficulty=2 • Unable to do=3. • The highest score reported by the patient for any component question of the eight categories determines the score for that category. • If a component question is left blank or the response is too ambiguous to assign a score, then the score for that category is determined by the remaining completed question(s). • If all component questions are blank or if more than one answer is given, then follow up with the respondent is required. • If the respondent's mark is between the response columns, then move it to the closest one. If it's directly between the two, move it to the higher one.
Each of the disability items on the SHAQ has a companion aids/devices variable that is used to record what type(s) of assistance, if any, the participant uses for his/her usual activities. These variables (see below) are coded as follows: • 0=No assistance is needed. • 1=A special device is used by the patient in his/her usual activities. • 2=The patient usually needs help from another person. • 3=The patient usually needs BOTH a special device AND help from another person.
The scoring variables and scoring rules permit the computation of two disability indices, the Standard Disability Index and the Alternative Disability Index.
This question results in a new set of category scores that are computed by adjusting the score for each category, if necessary, based on the patient's use of an aid or device or assistance for that category. If either devices and/or help from another person are checked for a category, the score is set to “2”, unless the score is already “3” (i.e., scores of “0” or “1” are increased to “2”). For example, if the highest score for the dressing category is “1”, and the patient says they use a device for dressing, the computed category score would be “2”. The sum of the computed categories scores is then calculated and divided by the number of categories answered. This gives a score in the 0 to 3 range.
The aid and device variables are not used to calculate the alternative disability index; it is calculated by adding the scores for each of the categories and dividing by the number of categories answered. This gives a score in the 0 to 3 range.
The standard, validated, patient reported outcome measures tool for SSc patients, the SHAQ, was collected at the time points specified in the study schedules (FIG. 2 and FIGS. 4A and 4B) to assess the participant's quality of life. The SHAQ included a Raynaud's VAS that will also be reported separately.

[1] = Any Cilnidipine (N = 14), Day 12, Modified ITT, SSc patients, Part A
[2] = Any Cilnidipine (N = 14), Day 12, Modified ITT, SSc patients, Part A, Subject 01-110 Day 12 score excluded
[3] = Any Cilnidipine (N = 17), Day 12, PP Population Part A, SSc patients
[4] = Any Cilnidipine (N = 17), PP Population Part A, SSc patients
[5] = Baseline, Cilnidipine 10 mg (N = 4), Patients with Diagnosis of SSc, PP Population Part A

COCCOC(=O)C1=C(C)NC(C)=C(C(=O)OC/C=C/c2ccccc2)C1c1cccc([N+](=O)[O-])c1 (stereo not shown) [Cilnidipine, cilnidipine]
SHAQ VAS- Breathing problems Change (20 mg): −0.83
SHAQ VAS- Raynaud's Change (20 mg): −1.27
SHAQ VAS- overall disease severity Change (20 mg): −1.63
SHAQ VAS-Pain (20 mg): −1.1
SHAQ Alternative Disability Index: Change from Baseline, Mean [1]: −0.016
SHAQ Alternative Disability Index: Change from Baseline, Median [1]: −0.031
SHAQ Alternative Disability Index: In-Clinic Visit (Day 12), Mean [1]: 0.430
SHAQ Alternative Disability Index: In-Clinic Visit (Day 12), Median [1]: 0.250
SHAQ Alternative Disability Index: Percent Change from Baseline, Mean [1]: 17.01%
SHAQ Alternative Disability Index: Percent Change from Baseline, Median [1]: −11.11%
SHAQ Standard Disability Index: Change from Baseline, Mean [1]: −0.050
SHAQ Standard Disability Index: Change from Baseline, Median [1]: 0.000
SHAQ Standard Disability Index: In-Clinic Visit (Day 12), Mean [1]: 0.521
SHAQ Standard Disability Index: In-Clinic Visit (Day 12), Median [1]: 0.250
SHAQ Standard Disability Index: Percent Change from Baseline, Mean [1]: 2.96%
SHAQ Standard Disability Index: Percent Change from Baseline, Median [1]: 0.00%
SHAQ Visual Analogue Scale - Finger Ulcers: Change from Baseline, Mean [1]: −0.623
SHAQ Visual Analogue Scale - Finger Ulcers: Change from Baseline, Median [1]: −0.100
SHAQ Visual Analogue Scale - Finger Ulcers: In-Clinic Visit (Day 12), Mean [1]: 0.900
SHAQ Visual Analogue Scale - Finger Ulcers: In-Clinic Visit (Day 12), Median [1]: 0.200
SHAQ Visual Analogue Scale - Finger Ulcers: Percent Change from Baseline, Mean [1]: −33.91%
SHAQ Visual Analogue Scale - Finger Ulcers: Percent Change from Baseline, Median [1]: −36.11%
SHAQ Visual Analogue Scale - Intestinal Problems: Change from Baseline, Mean [1]: −0.404
SHAQ Visual Analogue Scale - Intestinal Problems: Change from Baseline, Median [1]: 0.000
SHAQ Visual Analogue Scale - Intestinal Problems: In-Clinic Visit (Day 12), Mean [1]: 1.225
SHAQ Visual Analogue Scale - Intestinal Problems: In-Clinic Visit (Day 12), Median [1]: 0.650
SHAQ Visual Analogue Scale - Intestinal Problems: Percent Change from Baseline, Mean [1]: 0.28%
SHAQ Visual Analogue Scale - Intestinal Problems: Percent Change from Baseline, Median [1]: −10.00%
SHAQ Visual Analogue Scale - Overall Disease Severity: Change from Baseline, Mean [1]: −0.904
SHAQ Visual Analogue Scale - Overall Disease Severity: Change from Baseline, Median [1]: −1.300
SHAQ Visual Analogue Scale - Overall Disease Severity: In-Clinic Visit (Day 12), Mean [1]: 2.146
SHAQ Visual Analogue Scale - Overall Disease Severity: In-Clinic Visit (Day 12), Median [1]: 1.300
SHAQ Visual Analogue Scale - Overall Disease Severity: Percent Change from Baseline, Mean [1]: −30.92%
SHAQ Visual Analogue Scale - Overall Disease Severity: Percent Change from Baseline, Median [1]: −41.67%
SHAQ Visual Analogue Scale - Pain: Change from Baseline, Mean [1]: −0.492
SHAQ Visual Analogue Scale - Pain: Change from Baseline, Median [1]: −0.500
SHAQ Visual Analogue Scale - Pain: In-Clinic Visit (Day 12), Mean [1]: 2.236
SHAQ Visual Analogue Scale - Pain: In-Clinic Visit (Day 12), Median [1]: 2.150
SHAQ Visual Analogue Scale - Pain: Percent Change from Baseline, Mean [1]: −23.84%
SHAQ Visual Analogue Scale - Pain: Percent Change from Baseline, Median [1]: −21.87%
SHAQ Visual Analogue Scale - Raynaud's: Change from Baseline, Mean [1]: −0.538
SHAQ Visual Analogue Scale - Raynaud's: Change from Baseline, Median [1]: −0.300
SHAQ Visual Analogue Scale - Raynaud's: In-Clinic Visit (Day 12), Mean [1]: 1.798
SHAQ Visual Analogue Scale - Raynaud's: In-Clinic Visit (Day 12), Median [1]: 1.250
SHAQ Visual Analogue Scale - Raynaud's: Percent Change from Baseline, Mean [1]: −18.26%
SHAQ Visual Analogue Scale - Raynaud's: Percent Change from Baseline, Median [1]: −33.33%
SHAQ Visual Analogue Scale - Breathing Problems: Change from Baseline, Mean [2]: −0.015
SHAQ Visual Analogue Scale - Breathing Problems: Change from Baseline, Median [2]: 0.000
SHAQ Visual Analogue Scale - Breathing Problems: In-Clinic Visit (Day 12), Mean [2]: 1.515
SHAQ Visual Analogue Scale - Breathing Problems: In-Clinic Visit (Day 12), Median [2]: 0.400
SHAQ Visual Analogue Scale - Breathing Problems: Percent Change from Baseline, Mean [2]: 51.98%
SHAQ Visual Analogue Scale - Breathing Problems: Percent Change from Baseline, Median [2]: −21.33%
SHAQ Standard Disability Index, Change from Baseline, Mean [3]: −0.041
SHAQ Standard Disability Index, Change from Baseline, Median [3]: 0.000
SHAQ Standard Disability Index, Percent Change from Baseline, Mean [3]: 3.27%
SHAQ Standard Disability Index, Percent Change from Baseline, Median [3]: 0.00%
SHAQ Standard Disability Index, In-Clinic Visit (Day 12), Mean [4]: 0.539
SHAQ Standard Disability Index, In-Clinic Visit (Day 12), Median [4]: 0.250
SHAQ Alternative Disability Index, Mean [5]: 0.500
SHAQ Alternative Disability Index, Median [5]: 0.438
SHAQ Standard Disability Index, Mean [5]: 0.656
